From paper PMC10599620, “Structure of a diatom photosystem II supercomplex containing a member of Lhcx family and dimeric FCPII” (Science Advances, 2023)
Blank lines part the entries; values can stand above or below the molecule they belong to.

Assays:
[1] = molecular target: T1, Tp-Lhcf11 (Thalassiosira pseudonana, UniProt B8BVI1); assay: cryo-EM structure of native supercomplex, local map […] A; type: binding; conditions: site 305
T1 construct: native; Lhcf6-Lhcf11 heterodimer within purified PSII-FCPII supercomplex; with Fucoxanthin chlorophyll a/c light-harvesting protein Lhcf6
T1 sequence (B8BVI1 31-196): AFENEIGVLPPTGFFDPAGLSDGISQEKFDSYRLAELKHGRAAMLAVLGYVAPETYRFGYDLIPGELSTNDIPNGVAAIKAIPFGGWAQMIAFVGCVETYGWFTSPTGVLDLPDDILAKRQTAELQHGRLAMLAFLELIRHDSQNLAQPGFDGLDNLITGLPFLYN

[2] = molecular target: T2, Tp-Lhcf7 homodimer (Thalassiosira pseudonana, UniProt B8BX93); assay: cryo-EM structure of native supercomplex, […] A; type: binding; conditions: sites 301 and 302
T2 construct: native FCPII homodimer (Lhcf7_1, Lhcf7_2) within purified PSII-FCPII supercomplex
T2 sequence (B8BX93 31-194 limits assumed): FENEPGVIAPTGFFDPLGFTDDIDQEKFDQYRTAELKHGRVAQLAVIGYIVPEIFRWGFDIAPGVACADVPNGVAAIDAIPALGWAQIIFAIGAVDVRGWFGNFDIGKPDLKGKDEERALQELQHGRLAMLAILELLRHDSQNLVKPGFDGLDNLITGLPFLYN

[3] = molecular target: T3, Tp-Lhcf7 (Thalassiosira pseudonana); assay: cryo-EM structure; native PSII-FCPII supercomplex co-purified from T. pseudonana (cells grown under low light), in 50 mM Mes-NaOH pH 6.5, 10 mM NaCl, 5 mM CaCl2, 0.03% alpha-DDM, 2 mg Chl/ml; overall map 2.68 A, local map of the peripheral FCPII 3.19 A; conditions: both partners purified
T3 chain: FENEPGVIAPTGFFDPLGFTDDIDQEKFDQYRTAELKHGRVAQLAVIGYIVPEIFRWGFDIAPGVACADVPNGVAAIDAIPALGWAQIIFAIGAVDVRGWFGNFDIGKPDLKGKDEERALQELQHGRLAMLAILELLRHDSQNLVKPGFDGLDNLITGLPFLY

Molecule: CC(=O)O[C@H]1CC(C)(C)C(=C=C/C(C)=C/C=C/C(C)=C/C=C/C=C(C)/C=C/C=C(\C)C(=O)C[C@@]23O[C@]2(C)C[C@@H](O)CC3(C)C)[C@](C)(O)C1 [Fx]
cryo-EM structure of native supercomplex, local map 3.19 A [1]: two changes of pigment species at Chl c403 and Fx305 sites
cryo-EM structure of native supercomplex, 2.68 A [2]: There are two Fxs, Fx301 and Fx302, in Tp-Lhcf7

stoichiometry N [3]: 2
B1: Tp-Lhcf7 (natural protein)
chain: T3 chain
modifications: binds 12-13 Chl a, 2 fucoxanthins, 2 diadinoxanthins; homodimer in the supercomplex; limits are the residues modelled in 8IWH (Table S4) / binds 12-13 Chl a, 2 fucoxanthins, 2 diadinoxanthins …
